Experimental data taken from publication PMC8048867 (Chemmedchem, 2020).
“And” between values parts separate entries of the source, which are not always exact repeats. Equal values may be shown once.

Legend:
[1] = target: T1, recombinant human meprin α (Homo sapiens, UniProt Q16819); test: meprin α inhibition, quenched fluorogenic peptide substrate assay; format: biochemical; details: for SF: selectivity factor (K i app meprin β/K i app meprin α): meprin α over meprin β
T1 sequence (Q16819 66-746): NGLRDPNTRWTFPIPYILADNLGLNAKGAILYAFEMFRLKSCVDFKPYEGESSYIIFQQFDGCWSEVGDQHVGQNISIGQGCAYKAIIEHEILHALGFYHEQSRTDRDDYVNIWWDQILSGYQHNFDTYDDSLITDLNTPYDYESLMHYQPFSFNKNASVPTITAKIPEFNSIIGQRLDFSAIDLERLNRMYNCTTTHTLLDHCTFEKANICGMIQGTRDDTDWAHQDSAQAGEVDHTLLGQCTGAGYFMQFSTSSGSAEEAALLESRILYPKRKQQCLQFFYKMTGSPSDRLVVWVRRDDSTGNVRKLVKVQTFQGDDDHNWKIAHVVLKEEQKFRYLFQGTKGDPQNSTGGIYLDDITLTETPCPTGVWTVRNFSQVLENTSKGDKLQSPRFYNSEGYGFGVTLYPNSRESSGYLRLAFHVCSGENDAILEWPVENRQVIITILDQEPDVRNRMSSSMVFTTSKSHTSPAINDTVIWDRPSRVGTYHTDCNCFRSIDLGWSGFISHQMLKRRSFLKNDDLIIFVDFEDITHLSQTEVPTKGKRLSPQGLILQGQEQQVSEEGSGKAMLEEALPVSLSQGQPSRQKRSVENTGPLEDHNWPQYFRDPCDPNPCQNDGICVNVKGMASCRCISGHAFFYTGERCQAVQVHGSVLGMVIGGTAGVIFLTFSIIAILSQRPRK

[2] = target: T2, recombinant human meprin β (Homo sapiens, UniProt Q16820); test: meprin β inhibition, quenched fluorogenic peptide substrate assay; format: biochemical
T2 sequence (Q16820 62-701): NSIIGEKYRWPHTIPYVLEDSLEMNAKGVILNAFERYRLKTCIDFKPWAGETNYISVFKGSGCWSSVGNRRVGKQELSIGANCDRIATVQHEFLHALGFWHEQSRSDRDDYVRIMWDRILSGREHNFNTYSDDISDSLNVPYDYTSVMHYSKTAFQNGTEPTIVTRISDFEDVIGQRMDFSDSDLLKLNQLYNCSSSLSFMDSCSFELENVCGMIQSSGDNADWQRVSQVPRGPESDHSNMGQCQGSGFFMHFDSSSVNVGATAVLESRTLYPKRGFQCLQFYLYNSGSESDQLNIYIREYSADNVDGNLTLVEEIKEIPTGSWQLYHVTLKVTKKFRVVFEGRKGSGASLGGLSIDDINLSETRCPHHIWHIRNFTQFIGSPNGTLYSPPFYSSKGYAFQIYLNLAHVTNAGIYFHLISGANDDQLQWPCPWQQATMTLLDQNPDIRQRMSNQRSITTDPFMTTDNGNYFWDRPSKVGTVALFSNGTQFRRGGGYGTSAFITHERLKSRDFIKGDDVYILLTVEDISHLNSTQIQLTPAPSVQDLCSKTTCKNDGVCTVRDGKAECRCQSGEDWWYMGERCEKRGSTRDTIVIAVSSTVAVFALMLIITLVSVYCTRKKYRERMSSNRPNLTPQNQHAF

[3] = target: T3, MMP2 (Homo sapiens, UniProt P08253); test: off-target proteinase inhibition MMP2; format: biochemical; details: read-out: Relative enzyme activity MMP2
T3 sequence (P08253 110-660): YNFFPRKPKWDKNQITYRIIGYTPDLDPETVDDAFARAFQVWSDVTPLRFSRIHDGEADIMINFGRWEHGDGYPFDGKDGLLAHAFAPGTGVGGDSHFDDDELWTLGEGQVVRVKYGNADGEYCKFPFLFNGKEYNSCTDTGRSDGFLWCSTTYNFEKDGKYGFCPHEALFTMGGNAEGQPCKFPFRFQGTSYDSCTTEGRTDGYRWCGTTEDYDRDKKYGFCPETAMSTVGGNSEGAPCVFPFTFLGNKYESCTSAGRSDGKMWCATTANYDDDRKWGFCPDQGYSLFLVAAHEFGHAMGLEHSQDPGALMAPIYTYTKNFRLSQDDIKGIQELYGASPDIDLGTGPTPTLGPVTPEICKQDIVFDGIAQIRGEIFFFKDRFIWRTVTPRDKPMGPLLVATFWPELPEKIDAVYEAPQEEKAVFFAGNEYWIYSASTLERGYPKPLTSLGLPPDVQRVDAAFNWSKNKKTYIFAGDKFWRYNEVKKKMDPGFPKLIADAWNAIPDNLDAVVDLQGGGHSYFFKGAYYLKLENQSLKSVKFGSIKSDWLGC

[4] = target: MMP9 (Homo sapiens, UniProt P14780); test: off-target proteinase inhibition MMP9; format: biochemical; details: read-out: Relative enzyme activity MMP9
Sequence of MMP9 (P14780 107-707 limits assumed): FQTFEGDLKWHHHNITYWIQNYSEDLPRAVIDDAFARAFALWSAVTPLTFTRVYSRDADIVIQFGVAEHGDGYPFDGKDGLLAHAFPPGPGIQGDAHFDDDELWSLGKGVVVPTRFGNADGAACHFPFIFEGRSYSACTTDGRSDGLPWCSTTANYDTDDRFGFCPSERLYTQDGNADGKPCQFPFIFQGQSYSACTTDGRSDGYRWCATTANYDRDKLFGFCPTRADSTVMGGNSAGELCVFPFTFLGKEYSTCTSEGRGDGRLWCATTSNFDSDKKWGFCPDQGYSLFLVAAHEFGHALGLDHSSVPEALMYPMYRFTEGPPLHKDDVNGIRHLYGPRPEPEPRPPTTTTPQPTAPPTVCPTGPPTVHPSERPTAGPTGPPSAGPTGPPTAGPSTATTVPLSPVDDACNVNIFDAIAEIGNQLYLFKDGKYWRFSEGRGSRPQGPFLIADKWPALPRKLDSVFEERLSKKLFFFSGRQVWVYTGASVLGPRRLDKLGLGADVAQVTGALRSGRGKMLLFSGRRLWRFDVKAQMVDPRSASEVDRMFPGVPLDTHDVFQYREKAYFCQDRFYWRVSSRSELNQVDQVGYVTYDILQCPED

[5] = target: MMP13 (Homo sapiens, UniProt P45452); test: off-target proteinase inhibition MMP13; format: biochemical; details: read-out: Relative enzyme activity MMP13
[6] = target: T4, ADAM10 (Homo sapiens, UniProt O14672); test: off-target proteinase inhibition ADAM10; format: biochemical; details: read-out: Relative enzyme activity ADAM10
T4 sequence (O14672 214-748): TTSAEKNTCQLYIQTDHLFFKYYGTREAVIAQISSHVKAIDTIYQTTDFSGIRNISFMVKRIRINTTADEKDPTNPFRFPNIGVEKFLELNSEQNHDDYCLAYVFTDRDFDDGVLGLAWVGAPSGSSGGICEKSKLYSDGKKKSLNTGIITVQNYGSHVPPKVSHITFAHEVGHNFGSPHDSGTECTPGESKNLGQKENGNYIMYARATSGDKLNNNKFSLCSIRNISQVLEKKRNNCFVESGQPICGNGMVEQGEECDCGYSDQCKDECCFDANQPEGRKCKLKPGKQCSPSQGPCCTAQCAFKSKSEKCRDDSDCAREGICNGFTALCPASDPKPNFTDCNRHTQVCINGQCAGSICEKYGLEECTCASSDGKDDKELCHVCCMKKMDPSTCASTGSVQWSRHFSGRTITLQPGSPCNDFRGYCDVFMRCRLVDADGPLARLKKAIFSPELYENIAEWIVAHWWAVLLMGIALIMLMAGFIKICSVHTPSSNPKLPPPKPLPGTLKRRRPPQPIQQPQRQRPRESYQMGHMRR

[7] = target: ADAM17 (Homo sapiens, UniProt P78536); test: off-target proteinase inhibition ADAM17; format: biochemical; details: read-out: Relative enzyme activity ADAM17
Sequence of ADAM17 (P78536 215-824): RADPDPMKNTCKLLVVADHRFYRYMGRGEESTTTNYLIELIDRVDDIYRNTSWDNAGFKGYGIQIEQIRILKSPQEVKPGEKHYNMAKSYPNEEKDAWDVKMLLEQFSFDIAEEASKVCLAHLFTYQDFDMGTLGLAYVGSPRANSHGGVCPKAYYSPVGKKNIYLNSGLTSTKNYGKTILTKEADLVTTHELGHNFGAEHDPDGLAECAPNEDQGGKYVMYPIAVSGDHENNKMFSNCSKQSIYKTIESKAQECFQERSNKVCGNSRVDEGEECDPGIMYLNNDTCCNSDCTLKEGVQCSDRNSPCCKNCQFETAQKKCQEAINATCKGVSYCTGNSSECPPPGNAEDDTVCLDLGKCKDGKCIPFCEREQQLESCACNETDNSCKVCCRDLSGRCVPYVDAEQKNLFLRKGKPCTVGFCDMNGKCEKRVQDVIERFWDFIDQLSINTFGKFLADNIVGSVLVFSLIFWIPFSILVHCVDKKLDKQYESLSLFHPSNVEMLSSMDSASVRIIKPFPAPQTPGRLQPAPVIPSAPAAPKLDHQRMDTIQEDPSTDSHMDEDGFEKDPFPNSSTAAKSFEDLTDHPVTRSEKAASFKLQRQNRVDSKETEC

[8] = cell-viability assay; format: cell-based; details: human, Hep-G2 cells
[9] = cell-viability assay; format: cell-based; details: human, SH-SY5Y cells
[10] = target: T5, mouse ovastacin (Mus musculus, UniProt Q6HA09); test: ovastacin inhibition, fluorogenic enzyme activity assay
T5 sequence (Q6HA09 86-435 limits assumed): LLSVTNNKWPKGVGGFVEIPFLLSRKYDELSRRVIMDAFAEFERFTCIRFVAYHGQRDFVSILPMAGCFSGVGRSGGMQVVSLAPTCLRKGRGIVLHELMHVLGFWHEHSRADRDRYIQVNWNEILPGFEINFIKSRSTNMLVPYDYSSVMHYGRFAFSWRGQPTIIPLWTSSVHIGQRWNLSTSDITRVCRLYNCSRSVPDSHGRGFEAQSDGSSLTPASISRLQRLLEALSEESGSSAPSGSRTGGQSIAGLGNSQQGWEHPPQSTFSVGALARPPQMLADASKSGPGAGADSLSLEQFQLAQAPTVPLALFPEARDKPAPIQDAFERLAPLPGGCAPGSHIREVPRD

Compound	SF: selectivity factor (K i app meprin β/K i app meprin α) [1]	Ki [2] [nM]	remaining activity at 10 µM [3] [%]	remaining activity at 200 µM [3] [%]	remaining activity at 10 µM [4] [%]	remaining activity at 200 µM [4] [%]	remaining activity at 10 µM [5] [%]	remaining activity at 200 µM [5] [%]	remaining activity at 10 µM [6] [%]	remaining activity at 200 µM [6] [%]	remaining activity at 10 µM [7] [%]	remaining activity at 200 µM [7] [%]	viability at 24 h, 30 µM [8] [%]	viability at 24 h, 30 µM [9] [%]	Ki [10] [nM]	SF Meprin α: selectivity factor (K i app ovastacin/K i app meprin α) [10]	SF Meprin β: selectivity factor (K i app ovastacin/K i app meprin β) [10]	Ki [1] [nM]	also measured
O=C(Cc1c(-c2ccccc2)noc1-c1ccccc1)NO [2 c, 2‐(3,5‐Diphenylisoxazol‐4‐yl)ethanehydroxamic acid]	200 and 203	813	87	34	86	16	80	31	80	22	62	9	85	96	66	17	0.1	–	fold improvement in potency against meprin α compared to amine 1 d ([1]; compared to 1 d): 2000 fold; fold increase in activity against meprin α compared to 2 a ([1]; compared to pyrrole 2 a): 5 fold; fold increase in activity against meprin β compared to 2 a ([2]; compared to pyrrole 2 a): 5 fold
O=C(CCc1c(-c2ccccc2)noc1-c1ccccc1)NO [2 d, 3‐(3,5‐Diphenylisoxazol‐4‐yl)propanehydroxamic acid]	435	13500	98	74	89	39	79	66	75	21	75	24	90	123	–	–	–	31	–
O=C(CCc1c(-c2ccccc2)n[nH]c1-c1ccccc1)NO [2 f, 3‐(3,5‐Diphenyl‐1H‐pyrazol‐4‐yl)propanehydroxamic acid]	106	8030	97	77	93	65	93	68	66	12	76	27	93	93	2420	32	0.3	76	–
O=C(Cn1c(-c2ccccc2)nnc1-c1ccccc1)NO [2 g, 2‐(3,5‐Diphenyl‐1,2,4‐triazol‐4‐yl)ethanehydroxamic acid]	132	8680	95	70	99	54	93	76	89	83	90	56	94	99	4880	74	0.6	66	–
O=C(Cn1c(-c2ccccc2)cc2ccccc21)NO [4 a, 2‐(2‐Phenylindol‐1‐yl)ethanehydroxamic acid]	16	1080	85	41	90	53	77	54	89	68	88	56	–	–	93	1.3	0.1	69	–
O=C(Cn1c(-c2ccccc2)nc2ccccc21)NO [4 c, 2‐(2‐Phenylbenzimidazol‐1‐yl)ethanehydroxamic acid]	10	1620	89	46	96	68	102	72	87	76	92	56	85	94	2090	13	1.3	163	–
